The numbers were not newly measured in publication PMC5040077 (The Korean Journal of Parasitology, 2016), which cites them from elsewhere.

Each structure is given as a SMILES string.

Data set [1] deals with Leishmania chagasi promastigotes.
In data set [2] the test system is Trypanosoma cruzi trypomastigotes.
Another data set relates to HL-60. The note with it: cancer cell line HL-60.
The next data set has as its system SF-295. The note with it: cancer cell line SF-295.
The next data set deals with MDA-MB-435. The conditions noted are these: cancer cell line MDA-MB-435.
A further data set concerns HCT-8. The note with it: cancer cell line HCT-8.

For the compound `C[C@]12CC[C@H](O)C[C@@]1(O)CC[C@@H]1[C@@H]2CC[C@]2(C)[C@@H](c3ccc(=O)oc3)CC[C@]12O` [compound 1, telocinobufagin], the “biological activity against Leishmania chagasi promastigotes” value in data set [1] is on record as “biological activity”. The “activity against Trypanosoma cruzi trypomastigotes” value in data set [2] is on record as “only hellebrigenin was active”. Also, the “cytotoxicity against HL-60” value in the data set with HL-60 was “low cytotoxicity”. Moreover, in the data set on SF-295, the “cytotoxicity against SF-295” value is given as “low cytotoxicity”. Moreover, the “cytotoxicity against MDA-MB-435” value in the data set with MDA-MB-435 was “low cytotoxicity”. In addition, the “cytotoxicity against HCT-8” value in the data set with HCT-8 is recorded as “low cytotoxicity”.

In the case of `C[C@]12CC[C@H]3[C@@H](CC[C@]4(O)C[C@@H](O)CC[C@]34C=O)[C@@]1(O)CC[C@@H]2c1ccc(=O)oc1` [hellebrigenin, reference compound], the “biological activity against Leishmania chagasi promastigotes” value in data set [1] is “biological activity”. In addition, in data set [2], the “activity against Trypanosoma cruzi trypomastigotes” value is reported as “active”.
